Assay results as given in US20240287042A1, “NOVEL COMPOUND HAVING INHIBITORY ACTIVITY AGAINST PENDRIN, AND PHARMACEUTICAL USES THEREOF” (UIF (University Industry Foundation), Yonsei University, priority 2021, published 2024).

Biological target: T1, human wild-type (WT)-SLC26A3 (Homo sapiens, UniProt P40879)
T1 construct: expressed in transfected cells
T1 sequence (P40879 1-764): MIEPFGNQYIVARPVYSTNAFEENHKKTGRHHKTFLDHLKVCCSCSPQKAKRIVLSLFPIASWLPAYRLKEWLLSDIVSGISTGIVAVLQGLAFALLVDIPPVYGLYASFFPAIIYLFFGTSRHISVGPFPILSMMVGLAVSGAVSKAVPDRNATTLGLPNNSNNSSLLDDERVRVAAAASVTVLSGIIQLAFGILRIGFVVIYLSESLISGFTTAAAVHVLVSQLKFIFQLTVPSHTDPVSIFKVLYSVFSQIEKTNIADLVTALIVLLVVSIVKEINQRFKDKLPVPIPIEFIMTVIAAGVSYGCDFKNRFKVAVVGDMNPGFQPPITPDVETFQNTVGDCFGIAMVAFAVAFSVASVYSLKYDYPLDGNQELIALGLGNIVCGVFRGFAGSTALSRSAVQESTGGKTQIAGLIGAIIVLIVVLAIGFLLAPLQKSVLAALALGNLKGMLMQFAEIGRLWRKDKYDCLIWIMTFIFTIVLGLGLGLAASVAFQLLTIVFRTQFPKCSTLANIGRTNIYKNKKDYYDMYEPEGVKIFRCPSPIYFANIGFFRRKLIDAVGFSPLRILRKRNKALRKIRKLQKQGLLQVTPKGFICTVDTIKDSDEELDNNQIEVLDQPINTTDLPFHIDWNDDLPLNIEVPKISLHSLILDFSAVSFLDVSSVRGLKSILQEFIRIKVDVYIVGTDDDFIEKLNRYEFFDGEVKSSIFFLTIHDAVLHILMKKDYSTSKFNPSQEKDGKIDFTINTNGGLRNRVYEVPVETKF
Assay: SLC26A3 Cl−/I− exchange activity, YFP fluorescence in LN-215 cells
Type: cell-based
Conditions: for IC50: LN-215-YFP cells, FIG. 2, read-out: IC50 of Cl−/I− anion exchange by SLC26A3
Description: LN-215 cells were cultured in DMEM medium containing 10% fetal bovine serum (FBS), 100 units/ml of penicillin and 100 μg/ml streptomycin. LN-215 cells were stably transfected with pcDNA3.1 encoding the halide sensor YFP-H148Q/I152L/F46L and human wild-type (WT)-SLC26A3.
LN-215 cells expressing human WT SLC26A3 and YFP-F46L/H148Q/I152L were plated in 96-well microplates at a density of 2×10^4 cells per well, and cultured for 48 hours. Each well of the cell cultured 96-well plate was washed 2 times with 200 μL of PBS, and filled with 50 μL of HEPES buffered solution (140 mM NaCl, 5 mM KCl, 1 mM MgCl2, 1 mM CaCl2), 10 mM glucose and 10 mM HEPES (pH 7.4)). Test compounds (1 μL) were added to a final concentration of 100 μM. After culturing at 37° C. for 10 minutes, the 96-well plate was located on the FLUOstar Omega Microplate Reader (BMG Labtech, Ortenberg, Germany) for a fluorescence assay. Fluorescence was recorded continuously (400 ms per point) for 1 second (baseline), whereby each well was assayed individually for SLC26A3-mediated I-influx. Then, 50 μL of NaI-substituted HEPES buffered solution (replacing NaCl with NaI) was added using a liquid injector at 1 second, and YFP fluorescence was recorded for 5 seconds. The initial iodide influx rate was determined from the initial slope of fluorescence by nonlinear regression, after the injection of iodide.
In the case of SLC26A3 and SLC26A6, each transporter protein and halide sensitive YFP were expressed in LN-215 cells to measure the activity of the transporter protein.
Other details were carried out in the same manner as Example 5.

Row | Selectivity for pendrin than SLC26A3 | IC50 | SMILES
1 | about 18 times | 11.4 µM | Cc1ccc2[nH]c(C(=O)O)c(CC(=O)N3CCN(c4c(C)cccc4Cl)CC3)c2c1 [YPI-A4948, 3-(2-(4-(2-Chloro-6-methylphenyl)piperazin-1-yl)-2-oxoethyl)-5-methyl-1H-indole-2-carboxylic acid]
2 |  | 3.8 µM | Cc1ccc(C)c(N2CCN(C(=O)Cc3c(C(=O)O)[nH]c4ccc(Cl)cc34)CC2)c1 [YPI-H05, 5-chloro-3-(2-(4-(2,5-dimethylphenyl)piperazin-1-yl-)-2-oxoethyl)-1H-indole-2-carboxylic acid]
